Results taken from ChEMBL document CHEMBL5614437, “Antibacterial and Anti-Inflammatory Activity of Branched Peptides Derived from Natural Host Defense Sequences” (J Med Chem, 2024).
The source made the active and inactive calls. The rule behind the calls is not given here. Bridges are numbered along the chain shown (N, C = ends). Roman numbers before positions name the chains, in order.

What was measured:
Escherichia coli [1] = assay: Antibiofilm activity against Escherichia coli TG1 assessed as inhibition of biofilm formation incubated for 24 hrs by absorbance based analysis; type: functional
RAW264.7 [2] = assay: Cytotoxicity against mouse RAW264.7 cells assessed as cell death at 1 log concentration incubated for 4 to 24 hrs by crystal violet staining based analysis relative to control; type: toxicity; conditions: time 4-24 hrs
Klebsiella pneumoniae [3] = assay: Antibiofilm activity against 24 hrs preformed biofilm in Klebsiella pneumoniae ATCC43816 assessed as reduction in preformed biofilm incubated for 14 hrs by absorbance based analysis; type: functional
Escherichia coli [4] = assay: Antibiofilm activity against 24 hrs preformed biofilm in Escherichia coli TG1 assessed as reduction in preformed biofilm incubated for 14 hrs by absorbance based analysis; type: functional
Cell membrane [5] = assay: Induction of cytoplasmic membrane permeabilization in Escherichia coli TG1 assessed as increase in fluorescence incubated for 100 to 120 mins by PI/Sytox green dye based analysis; conditions: dose 1.5-3 µM, time 100-120 min
RAW264.7 [6] = assay: Cytotoxicity against mouse RAW264.7 cells assessed as cell killing incubated for 4 to 24 hrs by crystal violet staining based analysis; type: toxicity; conditions: time 4-24 hrs
Klebsiella pneumoniae [7] = assay: Antibiofilm activity against Klebsiella pneumoniae ATCC43816 assessed as inhibition of biofilm formation incubated for 24 hrs by absorbance based analysis; type: functional
Pseudomonas aeruginosa [8] = assay: Antibacterial activity against Pseudomonas aeruginosa ATCC 27853 incubated for 12 hrs by microdilution method; type: functional
[9] = Stability of compound in human serum at 180 uM measured after 4 hrs by HPLC-MS analysis; type: ADME, cell-free
Klebsiella pneumoniae [10] = assay: Antibacterial activity against Klebsiella pneumoniae ATCC43816 incubated for 12 hrs by microdilution method; type: functional
Lipopolysaccharide (LPS) = assay: Binding affinity to biotin-tagged LPS (unknown origin) preincubated for 30 mins followed by compound addition and 30 mins of incubation with streptavidin-POD by ELISA based microplate spectrophotometer; type: subcellular; conditions: dose 1-10 µg/ml
Klebsiella pneumoniae [11] = assay: Antibacterial activity against colistin-resistant Klebsiella pneumoniae incubated for 12 hrs by microdilution method; type: functional
Cell membrane [12] = assay: Induction of cytoplasmic membrane permeabilization in Escherichia coli TG1 assessed as increase in fluorescence at MIC measured after 40 to 50 mins by PI/Sytox green dye based analysis; conditions: time 40-50 min
Escherichia coli [13] = assay: Antibacterial activity against Escherichia coli clinical isolate LC711/14 incubated for 12 hrs by microdilution method; type: functional
Erythrocyte [14] = assay: Hemolytic activity in human RBC assessed as hemolysis at ~15 uM incubated for 2 hrs by absorbance based plate reader analysis; type: toxicity, cell-based
Cell membrane [15] = assay: Induction of cytoplasmic membrane permeabilization in Escherichia coli TG1 assessed as increase in fluorescence at 2 times of MIC measured after 10 mins by PI/Sytox green dye based analysis; type: cell membranes
Cell membrane [16] = assay: Induction of cytoplasmic membrane permeabilization in Escherichia coli TG1 assessed as wrinkling of membrane surface at 2 times of MIC measured after 30 to 60 mins by SEM analysis; conditions: time 30-60 min
Cell membrane [17] = assay: Induction of cytoplasmic membrane permeabilization in Escherichia coli TG1 assessed as enlargement of bacterial cells at 2 times of MIC measured after 30 to 60 mins by SEM analysis; type: cell membranes; conditions: time 30-60 min
Enterococcus faecalis = assay: Antibacterial activity against Enterococcus faecalis 51299 incubated for 12 hrs by microdilution method; type: functional
[18] = Selectivity ratio of biofilm prevention concentration for antibiofilm activity against Escherichia coli TG1 to MIC for antibacterial activity against Escherichia coli TG1; type: functional
[19] = Stability of compound in human serum at 180 uM measured after 24 hrs by HPLC-MS analysis; type: ADME, cell-free
Cell membrane [20] = assay: Induction of cytoplasmic membrane permeabilization in Escherichia coli TG1 assessed as loss of surface smoothness at 2 times of MIC measured after 30 to 60 mins by SEM analysis; conditions: time 30-60 min
Staphylococcus aureus = assay: Antibacterial activity against Staphylococcus aureus USA300 incubated for 12 hrs by microdilution method; type: functional
Escherichia coli [21] = assay: Antibacterial activity against Escherichia coli TG1 incubated for 12 hrs by microdilution method; type: functional
Erythrocyte [22] = assay: Hemolytic activity in human RBC assessed as hemolysis at 0.25 to 100 uM incubated for 2 hrs by absorbance based plate reader analysis; type: toxicity, cell-based; conditions: dose 0.25-100 µM
[23] = Selectivity ratio of MBIC80 for antibiofilm activity against preformed biofilm in Escherichia coli TG1 to MIC for antibacterial activity against Escherichia coli TG1; type: functional
Pseudomonas aeruginosa [24] = assay: Antibacterial activity against Pseudomonas aeruginosa clinical isolate FI-25 expressing VIM-1 metallo-beta-lactamase incubated for 12 hrs by microdilution method; type: functional
Pseudomonas aeruginosa [25] = assay: Antibacterial activity against Pseudomonas aeruginosa clinical isolate FI-29 expressing GES-5 beta-lactamase incubated for 12 hrs by microdilution method; type: functional
Mus musculus = assay: Anti-inflammatory activity in female BALB/C skin infection mouse model infected with Escherichia coli TG1 transfected with pGEN-luxCDABE plasmid assessed as reduction in monocyte number in skin at 16 mg/kg, SC pre-infected with bacteria for 2 hrs followed by compound administration and measured after 3 days by DAPI staining based immunohistochemical analysis; type: functional, organism-based; conditions: time 3.0 day
Erythrocyte [26] = assay: Hemolytic activity in human RBC assessed as hemolysis at 5 uM incubated for 2 hrs by absorbance based plate reader analysis; type: toxicity, cell-based
Enterococcus faecium = assay: Antibacterial activity against vancomycin-resistant Enterococcus faecium clinical isolate FI-48 incubated for 12 hrs by microdilution method; type: functional
Escherichia coli [27] = assay: (§1) Antibacterial activity against Escherichia coli TG1 transfected with pGEN-luxCDABE plasmid infected in female BALB/C mouse model of skin infection assessed as reduction in bacterial burden at 16 mg/kg, SC pre-infected with bacteria for 2 hrs followed by compound administration and measured after 2 to 3 days by luminescence imaging analysis; type: functional, organism-based; conditions: time 2-3 day
Cell membrane [28] = assay: Disruption of outer membrane integrity in Escherichia coli TG1 assessed as loss of double layer integrity measured after 60 mins by TEM analysis
Cell membrane [29] = assay: Disruption of outer membrane integrity in Escherichia coli TG1 assessed as formation of blisters outside the cell measured after 60 mins by TEM analysis; type: cell membranes
Escherichia coli [30] = assay: as §1, with “on day” for “after”, “2” for “2 to 3 days”, “analysis relative to control” for “analysis”; type: functional; design: scale not given: the % may be the effect or the level left; conditions: time 2 day

Substance | Activity (RAW264.7 [2]) | MBIC80 (Klebsiella pneumoniae [3]) | MBIC80 (Escherichia coli [4]) | Activity (Cell membrane [5]) | LC50 (RAW264.7 [6]) | MIC (Pseudomonas aeruginosa [8]) | Stability [9] | MIC (Klebsiella pneumoniae [10]) | Activity (Lipopolysaccharide (LPS)) | MIC (Klebsiella pneumoniae [11]) | Activity (Cell membrane [12]) | MIC (Escherichia coli [13]) | Activity (Cell membrane [15]) | Activity (Cell membrane [16]) | Activity (Cell membrane [17]) | MIC (Enterococcus faecalis) | Stability [19] | Activity (Cell membrane [20]) | MIC (Staphylococcus aureus) | MIC (Escherichia coli [21]) | other results
I: H-GRFKRFRKKLKK-NH2 / II: H-GRFKRFRKKLK / III: H-GRFKRFRKKL / IV: H-GRFKRFRKKL (amide I:11-IV:C, I:12-II:C, II:11-III:C) | 100% | 50 µM | 50 µM | Dose-Dependent Effect | 1.258 10^-5M | 6 µM | Stable | 25 µM | Dose-Dependent Effect | > 25 µM | Active | > 25 µM | Active | Active | Active | > 25 µM | Unstable | Active | > 25 µM | 6 µM | IC20 (Escherichia coli [1]): 25 µM; IC20 (Klebsiella pneumoniae [7]): 50 µM; Activity (Erythrocyte [14]): Toxic; Selectivity ratio [18]: 4
I: H-KKLLGKNWKLMKK-NH2 / II: H-KKLLGKNWKLMK / III: H-KKLLGKNWKLM / IV: H-KKLLGKNWKLM (amide I:12-IV:C, I:13-II:C, II:12-III:C) | 100% | 50 µM | 25 µM | Dose-Dependent Effect | 1 10^-5M | 3 µM | Stable | 25 µM | Dose-Dependent Effect | > 25 µM | Active | > 25 µM | Active | Active | Active | > 25 µM | Stable | Active | > 25 µM | 3 µM | Activity (Erythrocyte [22]): Non-Toxic; Selectivity ratio [23]: 8
I: H-TLLKKVLKAAAKKK-NH2 / II: H-TLLKKVLKAAAKK / III: H-TLLKKVLKAAAK / IV: H-TLLKKVLKAAAK (amide I:13-IV:C, I:14-II:C, II:13-III:C) | 100% | 50 µM | 3 µM | Dose-Dependent Effect | 4.405 10^-7M | 6 µM | Stable | 6 µM | Dose-Dependent Effect | 6 µM | Active | 3 µM | Active | Active | Active | 25 µM | Stable | Active | > 25 µM | 1.5 µM | IC20 (Escherichia coli [1]): 1.5 µM; MIC (Pseudomonas aeruginosa [24]): 12 µM; IC20 (Klebsiella pneumoniae [7]): 50 µM; MIC (Pseudomonas aeruginosa [25]): 12 µM; Activity (Mus musculus): Active; Activity (Erythrocyte [26]): Toxic; MIC (Enterococcus faecium): 6 µM; Activity (Escherichia coli [27]): Active; Activity (Cell membrane [28]): Active; Activity (Cell membrane [29]): Active; Activity (Escherichia coli [30]): 75%
